From US20240417428A1, “POLYPEPTIDE FOR INHIBITING TRPM8 AND USE THEREOF” (ZHEJIANG UNIVERSITY, priority 2021, published 2024)
Entries after “also recorded” stand apart in the source; their conditions may differ. Where a SMILES comes first, the peptide text is derived from it.

Assays:
[1] = Mice body temperature measurement; assay type: in vivo; conditions: 30 μg/g body weight i.v., up to 24 h
Method: A digital thermometer (FT3400) was used for body temperature measurement of mice. Adult CD1 male mice were placed into an environmental room maintained at a constant temperature of 22±1° C. Mice were injected with DeC-1.2 (30 mg/kg body weight) via the tail vein to assess the effect of DeC-1.2 on body temperature. Body temperature was measured before treatment (baseline, BL) and at 5 min, 15 min, 0.5, 1, 2, 6 and 24 hours following DeC-1.2 (30 mg/kg, i.v.) administration. The test probe of the thermometer was inserted into the anus of the mouse approximately 2 cm, and the body temperature was recorded after the temperature display value was stable.

[2] = test system: oxaliplatin-induced cold allodynia; assay: Oxaliplatin-induced cold allodynia, acetone evaporating cold test; assay type: in vivo, mice; conditions: 3.5 μg/20 μL intraplantar, day 10 after oxaliplatin
Method: Adult male CD1 mice (6-8 weeks old) were used as experimental animals for behavioral experiments and primary cultures of DRG neurons. Mice were raised in the condition of 12 h light/12 h dark of light cycle with adequate standard chow and water. All animal protocols were approved by the Institutional Animal Care and Use Committee (IACUC) of Zhejiang University.
All of mice were habituated to the behavioral testing environment for 1-to-2 hours in 2-to-3 days before the behavioral testing. Single intraperitoneal (i.p.) injection of oxaliplatin (6 mg/kg body weight) was given to generate chemotherapy-induced neuropathic pain. Neuropathic pain behaviors were tested about 10 days after oxaliplatin injection.
Acetone-induced evaporating cold test was used to assess the oxaliplatin-induced cold allodynia. 50 μL acetone was gently splashed to the hind-paw plantar of oxaliplatin-treated mice via a syringe attached with plastic tube. The time spent in withdrawing, flinching or licking the stimulated paw was recorded and blindly counted during 5 min after acetone treatment. The cold allodynia behavior of mice was respectively measured on day 10 pre- or post-treatment with oxaliplatin, Vehicle or 3.5 μg/20 μL DeC-1.2 was intraplantarly injected to assess its analgesic effect on oxaliplatin-induced allodynia.

[3] = biological target: TRPM8 (Mus musculus, UniProt Q8R4D5); assay: Inside-out single-channel recording of cold-activated TRPM8 (16° C.) at +80 mV; assay type: cell-based; design: expressed in transfected cells; host or cells: HEK293T; conditions: DeC-1.2 100 μM at 16° C.
TRPM8, sequence (Q8R4D5 whole entry): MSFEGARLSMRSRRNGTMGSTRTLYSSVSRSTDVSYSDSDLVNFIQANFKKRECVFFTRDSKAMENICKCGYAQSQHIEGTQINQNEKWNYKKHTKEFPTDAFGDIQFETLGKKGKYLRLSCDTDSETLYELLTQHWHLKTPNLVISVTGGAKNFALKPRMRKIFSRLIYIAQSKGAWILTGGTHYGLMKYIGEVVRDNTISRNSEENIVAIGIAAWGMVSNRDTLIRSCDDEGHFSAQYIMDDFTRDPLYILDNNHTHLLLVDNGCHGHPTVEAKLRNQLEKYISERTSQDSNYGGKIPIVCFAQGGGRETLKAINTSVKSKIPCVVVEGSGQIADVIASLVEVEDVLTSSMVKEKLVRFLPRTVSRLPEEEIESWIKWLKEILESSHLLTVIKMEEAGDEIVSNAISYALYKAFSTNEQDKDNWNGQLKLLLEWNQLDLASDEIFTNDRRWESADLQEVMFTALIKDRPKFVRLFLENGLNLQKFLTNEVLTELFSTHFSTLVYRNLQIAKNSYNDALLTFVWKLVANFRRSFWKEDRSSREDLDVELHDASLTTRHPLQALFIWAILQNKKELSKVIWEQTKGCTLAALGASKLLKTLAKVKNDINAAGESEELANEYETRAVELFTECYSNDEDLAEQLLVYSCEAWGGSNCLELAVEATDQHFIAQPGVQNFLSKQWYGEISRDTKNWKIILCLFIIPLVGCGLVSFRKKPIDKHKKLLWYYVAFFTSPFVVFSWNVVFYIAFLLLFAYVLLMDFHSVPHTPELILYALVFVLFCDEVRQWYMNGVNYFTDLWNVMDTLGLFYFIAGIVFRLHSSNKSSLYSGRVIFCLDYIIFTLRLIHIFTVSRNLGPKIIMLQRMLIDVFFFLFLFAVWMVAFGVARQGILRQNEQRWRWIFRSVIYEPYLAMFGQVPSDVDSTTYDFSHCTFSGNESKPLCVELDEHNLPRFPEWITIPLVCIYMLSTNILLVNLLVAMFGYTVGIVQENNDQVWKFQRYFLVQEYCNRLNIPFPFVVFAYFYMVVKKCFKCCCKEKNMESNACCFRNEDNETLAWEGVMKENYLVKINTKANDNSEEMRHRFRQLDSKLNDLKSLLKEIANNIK
Method: (§1) HEK293T cells were cultured in Dulbecco's modified Eagle culture medium under a 37° C., 5% CO2 environment, 10% fetal bovine serum, penicillin (100 U/mL), and streptomycin ([…]) was needed to add into the culture medium. Transient transfection was conducted by using Lipo 2000 (Invitrogen) transfection kit and following the instruction manual.
(§2) Electrophysiological experiment recordings were performed on the cells within 24˜48 h of transient transfections. Specifically, single channel electrophysiological recordings were performed within 8 h after transfection.
Measurement of the cell currents was respectively performed in the whole-cell recording mode, inside-out recording mode or outside-out recording mode with a HEKA EPC10 amplifier. In the whole cell electrophysiological recordings, glass microelectrodes made of borosilicate material were fire-polished to a original electrode resistance of about 3-6 MΩ. Serial resistance was compensated by 60%. The whole cell electrophysiological recordings were performed at ±80 mV. For single channel electrophysiological recordings, glass microelectrodes were fire-polished to a higher resistance of 6-8 MΩ2. Current signal was sampled at 10 kHz and filtered at 2.9 kHz. Membrane potential of the cell membrane would be clamped at +80 mV. […]
There were different bath and pipette solutions prepared for different ion channels current measurement. […]

[4] = biological target: T1, Nav1.7 (Homo sapiens, UniProt Q15858); assay: Electrophysiological recording of Nav1.7 sodium current; assay type: cell-based
T1 construct: expressed in transfected cells; host or cells: HEK293T
T1 sequence (Q15858 whole entry): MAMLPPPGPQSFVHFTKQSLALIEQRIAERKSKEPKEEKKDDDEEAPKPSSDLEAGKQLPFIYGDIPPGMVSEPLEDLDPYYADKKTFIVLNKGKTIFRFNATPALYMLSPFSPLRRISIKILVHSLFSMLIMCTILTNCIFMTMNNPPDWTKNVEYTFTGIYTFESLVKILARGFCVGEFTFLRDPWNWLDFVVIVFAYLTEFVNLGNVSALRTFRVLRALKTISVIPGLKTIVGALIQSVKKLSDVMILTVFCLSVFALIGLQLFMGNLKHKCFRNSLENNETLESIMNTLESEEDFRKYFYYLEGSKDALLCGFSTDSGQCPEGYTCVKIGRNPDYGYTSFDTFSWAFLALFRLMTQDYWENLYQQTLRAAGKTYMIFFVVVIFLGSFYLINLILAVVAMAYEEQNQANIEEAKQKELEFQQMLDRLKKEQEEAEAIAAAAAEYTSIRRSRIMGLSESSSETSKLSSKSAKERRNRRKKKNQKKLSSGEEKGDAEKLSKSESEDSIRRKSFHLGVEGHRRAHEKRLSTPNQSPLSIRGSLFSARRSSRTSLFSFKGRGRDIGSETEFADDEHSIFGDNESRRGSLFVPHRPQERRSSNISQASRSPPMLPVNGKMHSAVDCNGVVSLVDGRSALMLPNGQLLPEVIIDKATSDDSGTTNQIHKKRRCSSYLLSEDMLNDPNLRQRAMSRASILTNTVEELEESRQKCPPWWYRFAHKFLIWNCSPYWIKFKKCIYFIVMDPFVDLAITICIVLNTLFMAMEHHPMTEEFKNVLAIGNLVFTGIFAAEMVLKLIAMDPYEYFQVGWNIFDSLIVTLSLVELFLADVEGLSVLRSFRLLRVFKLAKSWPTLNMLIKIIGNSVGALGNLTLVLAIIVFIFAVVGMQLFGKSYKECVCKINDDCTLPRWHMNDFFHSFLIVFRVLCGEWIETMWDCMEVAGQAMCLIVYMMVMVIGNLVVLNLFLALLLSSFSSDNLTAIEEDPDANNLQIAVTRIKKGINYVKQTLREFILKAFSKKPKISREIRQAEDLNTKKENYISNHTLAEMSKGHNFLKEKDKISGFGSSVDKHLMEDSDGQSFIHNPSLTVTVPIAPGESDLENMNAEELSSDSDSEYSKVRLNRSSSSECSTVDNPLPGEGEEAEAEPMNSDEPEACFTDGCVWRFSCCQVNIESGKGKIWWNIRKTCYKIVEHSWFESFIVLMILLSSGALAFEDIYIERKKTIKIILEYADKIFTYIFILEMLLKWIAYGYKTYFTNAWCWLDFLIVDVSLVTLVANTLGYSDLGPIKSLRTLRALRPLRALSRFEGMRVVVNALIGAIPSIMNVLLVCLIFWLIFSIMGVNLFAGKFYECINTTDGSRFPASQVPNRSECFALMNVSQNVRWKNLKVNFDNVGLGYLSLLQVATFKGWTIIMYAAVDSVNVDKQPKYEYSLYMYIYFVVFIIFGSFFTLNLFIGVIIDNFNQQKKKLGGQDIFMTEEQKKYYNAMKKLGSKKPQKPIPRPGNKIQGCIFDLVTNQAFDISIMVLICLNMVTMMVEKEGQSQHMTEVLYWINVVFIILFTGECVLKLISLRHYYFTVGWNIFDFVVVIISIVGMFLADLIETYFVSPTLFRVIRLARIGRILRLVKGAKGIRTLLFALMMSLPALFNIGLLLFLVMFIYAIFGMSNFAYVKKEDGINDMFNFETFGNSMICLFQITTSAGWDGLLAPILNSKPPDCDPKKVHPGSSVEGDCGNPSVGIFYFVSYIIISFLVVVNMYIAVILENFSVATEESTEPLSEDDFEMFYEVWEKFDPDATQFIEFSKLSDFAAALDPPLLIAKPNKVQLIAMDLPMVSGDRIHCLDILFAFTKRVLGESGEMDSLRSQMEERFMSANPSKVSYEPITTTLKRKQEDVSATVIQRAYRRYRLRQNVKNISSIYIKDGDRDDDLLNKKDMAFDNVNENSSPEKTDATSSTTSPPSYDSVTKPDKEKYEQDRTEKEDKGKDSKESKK
Method: as §1, §2
(§3) Measurement of the cell currents was respectively performed in the whole-cell recording mode, inside-out recording mode or outside-out recording mode with a HEKA EPC10 amplifier. In the whole cell electrophysiological recordings, glass microelectrodes made of borosilicate material were fire-polished to a original electrode resistance of about 3-6 MΩ. Serial resistance was compensated by 60%. The whole cell electrophysiological recordings were performed at ±80 mV. For single channel electrophysiological recordings, glass microelectrodes were fire-polished to a higher resistance of 6-8 MΩ2. Current signal was sampled at 10 kHz and filtered at 2.9 kHz. Membrane potential of the cell membrane would be clamped at +80 mV. All electrophysiological recordings were performed at room temperature (22° C.) (the maximum variation is 1° C.). […]

[5] = biological target: T2, TRPM2 (Homo sapiens, UniProt O94759); assay: Electrophysiological recording, ligand activation of TRPM2; assay type: cell-based
T2 construct: expressed in transfected cells; host or cells: HEK293T
T2 sequence (O94759 whole entry): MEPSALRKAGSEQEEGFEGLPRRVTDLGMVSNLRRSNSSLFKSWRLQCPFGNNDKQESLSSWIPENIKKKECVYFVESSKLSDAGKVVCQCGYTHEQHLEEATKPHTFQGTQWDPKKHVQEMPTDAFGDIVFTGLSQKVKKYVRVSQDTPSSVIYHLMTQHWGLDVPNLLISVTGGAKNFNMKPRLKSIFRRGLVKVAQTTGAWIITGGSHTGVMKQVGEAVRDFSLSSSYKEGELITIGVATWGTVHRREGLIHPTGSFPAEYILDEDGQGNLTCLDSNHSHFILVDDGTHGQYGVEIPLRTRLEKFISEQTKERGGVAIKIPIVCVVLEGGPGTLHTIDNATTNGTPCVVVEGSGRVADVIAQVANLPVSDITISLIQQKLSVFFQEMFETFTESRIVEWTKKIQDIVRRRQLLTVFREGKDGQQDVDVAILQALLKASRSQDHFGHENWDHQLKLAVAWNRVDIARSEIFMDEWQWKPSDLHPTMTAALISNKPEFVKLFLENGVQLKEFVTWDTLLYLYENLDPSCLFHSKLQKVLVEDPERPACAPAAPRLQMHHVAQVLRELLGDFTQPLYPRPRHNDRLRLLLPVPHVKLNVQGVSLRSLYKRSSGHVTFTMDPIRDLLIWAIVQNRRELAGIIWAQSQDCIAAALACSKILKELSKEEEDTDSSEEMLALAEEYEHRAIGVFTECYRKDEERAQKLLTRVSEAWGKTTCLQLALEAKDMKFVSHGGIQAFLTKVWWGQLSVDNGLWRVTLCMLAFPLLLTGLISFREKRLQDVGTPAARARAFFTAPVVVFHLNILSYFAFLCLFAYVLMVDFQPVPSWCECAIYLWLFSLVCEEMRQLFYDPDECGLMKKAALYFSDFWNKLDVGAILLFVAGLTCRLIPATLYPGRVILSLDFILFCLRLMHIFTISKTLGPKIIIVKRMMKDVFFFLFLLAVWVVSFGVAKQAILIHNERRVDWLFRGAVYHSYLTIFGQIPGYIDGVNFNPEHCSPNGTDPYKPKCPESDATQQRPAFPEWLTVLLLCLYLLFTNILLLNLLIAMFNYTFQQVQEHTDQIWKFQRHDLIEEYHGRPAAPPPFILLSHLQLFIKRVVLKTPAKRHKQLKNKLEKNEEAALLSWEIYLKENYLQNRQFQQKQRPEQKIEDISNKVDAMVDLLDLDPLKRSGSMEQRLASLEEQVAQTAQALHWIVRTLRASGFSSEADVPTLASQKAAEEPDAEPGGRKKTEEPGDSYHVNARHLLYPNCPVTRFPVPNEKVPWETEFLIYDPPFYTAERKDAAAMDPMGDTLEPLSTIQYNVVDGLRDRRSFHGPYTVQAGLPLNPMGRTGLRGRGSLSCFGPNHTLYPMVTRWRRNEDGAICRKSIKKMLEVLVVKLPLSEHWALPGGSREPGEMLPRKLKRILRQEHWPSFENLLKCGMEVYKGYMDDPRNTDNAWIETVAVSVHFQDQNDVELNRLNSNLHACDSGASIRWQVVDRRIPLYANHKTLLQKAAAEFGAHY
Method: as §1, §2, §3

[6] = biological target: T3, TRPV1 (Homo sapiens, UniProt Q8NER1); assay: Electrophysiological recording, ligand activation of TRPV1; assay type: cell-based
T3 construct: expressed in transfected cells; host or cells: HEK293T
Method: as §1, §2, §3

Structure (SMILES): C[C@@H]1NC(=O)[C@H](CCCNC(=N)N)NC(=O)[C@H](CC(=O)O)NC(=O)[C@H](CCCNC(=N)N)NC(=O)[C@H](CCCNC(=N)N)NC(=O)[C@@H](N)CSSC[C@@H](C(=O)O)NC(=O)[C@H](CCCNC(=N)N)NC(=O)[C@H](CCC(N)=O)NC(=O)[C@H](CCCNC(=N)N)NC(=O)[C@H](Cc2ccc(O)cc2)NC(=O)[C@H](Cc2c[nH]cn2)NC(=O)[C@H](CCCNC(=N)N)NC1=O [DeC-1.2, CRRDRARHYRQRC] (HELM PEPTIDE1{C.R.R.D.R.A.R.H.Y.R.Q.R.C}$PEPTIDE1,PEPTIDE1,1:R3-13:R3$$$V2.0; N-terminus and C-terminus assumed)
- effect on body temperature [1]: did not significantly alter body temperature
- cold pain behavior induced by acetone evaporation (acetone score) [2]: significantly improved the cold pain behavior
- effect on open probability of cold-activated TRPM8 [3]: does not change significantly; also recorded: did not decrease the open probability
- effect on single-channel conductance of cold-activated TRPM8 [3]: does not change significantly; also recorded: did not further reduce the single-channel conductance
- IC50 [4]: > 100 µM
- inhibition of Nav channels ([4]; Nav1.7): none of the TRP channels and Nav channels were inhibited
- IC50 [5]: > 100 µM
- block of ligand activation of TRPM2 ([5]; DeC-1.2 up to 100 μM): not blocked
- IC50 [6]: > 100 µM
- inhibition of ligand activation of TRPV1 ([6]; DeC-1.2 5 μM): failed to inhibit
